The record followed here is ChEMBL document CHEMBL5715954, “Silencing c-Myc translation as a therapeutic strategy through targeting PI3Kδ and CK1ε in hematological malignancies” (Blood, 2017).

Holding throughout (parameters): scale not given: the % may be the effect or the level left
Assay [1] deals with Tyrosine-protein kinase ABL2 (Homo sapiens) (UniProt P42684). Description: Inhibition of human ABL2 assessed as enzyme activity at 1 uM using EAIYAAPFAKKK as substrate preincubated for 20 mins followed by [gamma-33P]-ATP addition and measured after 120 mins by radiometric Hot-SpotSM Kinase assay relative to control.
Assay [2] has as its target T1, Calcium/calmodulin-dependent protein kinase type IV (Homo sapiens) (UniProt Q16566).
T1 sequence (whole entry): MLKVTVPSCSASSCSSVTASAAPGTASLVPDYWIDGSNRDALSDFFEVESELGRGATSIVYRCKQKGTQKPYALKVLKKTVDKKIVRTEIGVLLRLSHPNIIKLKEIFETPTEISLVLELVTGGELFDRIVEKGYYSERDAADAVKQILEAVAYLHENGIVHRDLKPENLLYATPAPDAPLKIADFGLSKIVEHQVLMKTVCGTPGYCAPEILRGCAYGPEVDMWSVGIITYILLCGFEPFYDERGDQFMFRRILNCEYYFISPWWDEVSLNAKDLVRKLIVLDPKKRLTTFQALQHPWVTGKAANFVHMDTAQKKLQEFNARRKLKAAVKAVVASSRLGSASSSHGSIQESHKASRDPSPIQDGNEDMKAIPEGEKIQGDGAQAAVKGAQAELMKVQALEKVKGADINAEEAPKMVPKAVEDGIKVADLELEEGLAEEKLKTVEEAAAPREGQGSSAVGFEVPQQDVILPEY
Description: Inhibition of human CAMK4 assessed as enzyme activity at 1 uM using KKLNRTLSFAEPG as substrate preincubated for 20 mins followed by [gamma-33P]-ATP addition and measured after 120 mins by radiometric Hot-SpotSM Kinase assay relative to control.

Assay [3] deals with T2, Serine/threonine-protein kinase LATS2 (Homo sapiens) (UniProt Q9NRM7).
T2 sequence (whole entry): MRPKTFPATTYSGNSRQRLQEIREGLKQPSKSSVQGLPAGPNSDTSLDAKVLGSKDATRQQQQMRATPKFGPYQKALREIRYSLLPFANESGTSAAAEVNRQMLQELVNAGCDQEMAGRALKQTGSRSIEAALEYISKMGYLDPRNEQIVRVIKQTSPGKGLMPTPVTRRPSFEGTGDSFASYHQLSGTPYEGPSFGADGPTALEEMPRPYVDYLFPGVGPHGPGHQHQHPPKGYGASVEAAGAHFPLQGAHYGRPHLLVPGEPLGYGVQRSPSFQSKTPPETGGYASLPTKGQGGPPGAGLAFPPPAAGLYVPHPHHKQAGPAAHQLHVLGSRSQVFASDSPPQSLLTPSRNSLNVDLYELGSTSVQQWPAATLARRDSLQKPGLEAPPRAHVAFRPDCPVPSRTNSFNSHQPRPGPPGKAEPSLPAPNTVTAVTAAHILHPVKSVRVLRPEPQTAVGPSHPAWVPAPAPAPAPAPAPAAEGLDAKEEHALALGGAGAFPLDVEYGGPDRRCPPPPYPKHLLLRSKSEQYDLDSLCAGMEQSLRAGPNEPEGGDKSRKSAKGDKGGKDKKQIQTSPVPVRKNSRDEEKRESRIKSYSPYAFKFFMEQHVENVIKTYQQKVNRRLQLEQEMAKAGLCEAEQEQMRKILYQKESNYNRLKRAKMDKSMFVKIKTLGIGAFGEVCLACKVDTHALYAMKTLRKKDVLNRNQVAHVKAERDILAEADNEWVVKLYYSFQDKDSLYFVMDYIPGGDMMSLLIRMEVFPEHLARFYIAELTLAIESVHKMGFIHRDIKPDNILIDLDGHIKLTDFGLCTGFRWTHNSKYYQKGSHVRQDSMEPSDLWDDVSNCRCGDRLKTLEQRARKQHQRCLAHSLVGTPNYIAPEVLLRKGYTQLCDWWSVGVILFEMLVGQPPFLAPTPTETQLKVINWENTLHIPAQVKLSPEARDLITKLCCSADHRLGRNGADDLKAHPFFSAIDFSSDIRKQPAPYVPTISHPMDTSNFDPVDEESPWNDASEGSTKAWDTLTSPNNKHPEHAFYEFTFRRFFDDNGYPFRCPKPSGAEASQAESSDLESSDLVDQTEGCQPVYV
Description: Inhibition of human LATS2 assessed as enzyme activity at 1 uM using KKRNRRLSVA as substrate preincubated for 20 mins followed by [gamma-33P]-ATP addition and measured after 120 mins by radiometric Hot-SpotSM Kinase assay relative to control.

Assay [4] concerns the target T3, SNF-related serine/threonine-protein kinase (Homo sapiens) (UniProt Q9NRH2).
T3 sequence (whole entry): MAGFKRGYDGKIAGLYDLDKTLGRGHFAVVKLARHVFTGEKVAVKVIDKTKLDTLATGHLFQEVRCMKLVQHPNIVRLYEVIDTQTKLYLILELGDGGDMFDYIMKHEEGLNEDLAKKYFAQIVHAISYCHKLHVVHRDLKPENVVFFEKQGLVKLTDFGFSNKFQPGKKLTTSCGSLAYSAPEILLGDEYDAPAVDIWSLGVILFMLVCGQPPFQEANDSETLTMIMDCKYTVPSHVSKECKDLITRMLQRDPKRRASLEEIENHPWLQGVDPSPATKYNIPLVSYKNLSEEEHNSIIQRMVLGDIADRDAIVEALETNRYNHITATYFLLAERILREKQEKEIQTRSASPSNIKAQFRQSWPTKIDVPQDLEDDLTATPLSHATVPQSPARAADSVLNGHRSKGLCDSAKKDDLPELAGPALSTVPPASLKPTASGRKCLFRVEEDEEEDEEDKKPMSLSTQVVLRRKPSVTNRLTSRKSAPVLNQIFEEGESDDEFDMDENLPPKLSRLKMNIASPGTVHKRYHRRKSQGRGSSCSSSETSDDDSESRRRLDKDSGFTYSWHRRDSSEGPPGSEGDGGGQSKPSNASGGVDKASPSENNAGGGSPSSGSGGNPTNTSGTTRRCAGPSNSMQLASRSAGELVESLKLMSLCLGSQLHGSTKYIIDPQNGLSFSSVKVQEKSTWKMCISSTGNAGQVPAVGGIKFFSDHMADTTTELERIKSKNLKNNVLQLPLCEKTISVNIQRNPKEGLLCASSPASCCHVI
Description: Inhibition of human SNRK assessed as enzyme activity at 1 uM using myelin basic protein as substrate preincubated for 20 mins followed by [gamma-33P]-ATP addition and measured after 120 mins by radiometric Hot-SpotSM Kinase assay relative to control.

Tyrosine-protein kinase ABL2 (Homo sapiens), sequence (P42684 whole entry): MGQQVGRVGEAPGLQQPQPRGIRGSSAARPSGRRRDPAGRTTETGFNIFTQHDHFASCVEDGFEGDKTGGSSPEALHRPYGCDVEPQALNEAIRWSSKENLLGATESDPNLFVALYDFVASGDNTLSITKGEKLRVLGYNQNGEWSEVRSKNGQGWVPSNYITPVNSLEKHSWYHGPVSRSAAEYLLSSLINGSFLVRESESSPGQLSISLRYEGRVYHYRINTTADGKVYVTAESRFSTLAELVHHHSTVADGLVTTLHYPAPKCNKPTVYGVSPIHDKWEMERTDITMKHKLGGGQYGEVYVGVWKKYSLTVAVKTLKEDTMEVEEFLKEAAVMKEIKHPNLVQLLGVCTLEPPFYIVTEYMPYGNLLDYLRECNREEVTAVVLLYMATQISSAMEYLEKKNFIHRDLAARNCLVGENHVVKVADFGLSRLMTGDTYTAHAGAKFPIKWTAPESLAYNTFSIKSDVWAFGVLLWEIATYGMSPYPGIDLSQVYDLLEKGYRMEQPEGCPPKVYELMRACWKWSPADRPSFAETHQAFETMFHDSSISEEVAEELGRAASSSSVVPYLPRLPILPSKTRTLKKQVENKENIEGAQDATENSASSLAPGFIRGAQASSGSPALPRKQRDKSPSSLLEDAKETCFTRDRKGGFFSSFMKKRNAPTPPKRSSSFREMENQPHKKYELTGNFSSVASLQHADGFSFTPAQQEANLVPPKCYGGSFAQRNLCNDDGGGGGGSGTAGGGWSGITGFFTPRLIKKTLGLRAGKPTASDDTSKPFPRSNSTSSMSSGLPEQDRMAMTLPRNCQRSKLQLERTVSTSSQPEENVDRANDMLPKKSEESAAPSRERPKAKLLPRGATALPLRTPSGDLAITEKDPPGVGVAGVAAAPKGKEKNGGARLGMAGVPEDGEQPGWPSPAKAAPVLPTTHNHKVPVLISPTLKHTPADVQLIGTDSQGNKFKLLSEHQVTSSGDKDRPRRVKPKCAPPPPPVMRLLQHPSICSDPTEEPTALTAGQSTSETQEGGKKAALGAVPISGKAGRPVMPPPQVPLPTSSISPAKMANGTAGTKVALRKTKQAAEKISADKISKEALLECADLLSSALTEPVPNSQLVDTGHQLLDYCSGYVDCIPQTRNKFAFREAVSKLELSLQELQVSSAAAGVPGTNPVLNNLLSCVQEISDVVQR

For the compound `C[C@H](Nc1ncnc2nc[nH]c12)c1cc2cccc(Cl)c2c(=O)n1-c1ccccc1`, the Activity in assay [1] was 91.7%; in assay [2], 80.7%; in assay [3], 91.9%; in assay [4], 96.6%.

For `CC[C@H](Nc1ncnc2[nH]cnc12)c1nc2cccc(F)c2c(=O)n1-c1ccccc1`, the Activity in assay [1] is 89.1%; in assay [2], 82.5%; in assay [3], 91.5%; in assay [4], 102%.

On to `CC(C)Oc1ccc(-c2nn([C@@H](C)c3oc4ccc(F)cc4c(=O)c3-c3cccc(F)c3)c3ncnc(N)c23)cc1F` [UMBRALISIB], for which the Activity in assay [1] turned out to be 90.6%; in assay [2], 75.4%; in assay [3] it was 103%; in assay [4], 102%.
